Source: patent US10813920B2, “Drug for treating corneal endothelium by promoting cell proliferation or inhibiting cell damage” (THE DOSHISHA, priority 2013, dated 2020)
Structures can show the parent of a compound that is named as a salt. Residues, ends and D or L forms follow the SMILES beside them. *: point of attachment. Cbz = O=C(OCc1ccccc1)*; CH2F = FC*

How the values were obtained:
[1] = system: cultured monkey corneal endothelial cells; test: p38 MAPK activation induces apoptosis: Western blot in cultured monkey corneal endothelial cells; assay type: cell-based; conditions: Western blot after 9 hours
Description: 1×10^5 cultured monkey corneal endothelial cells were seeded on a 12-well plate coated with an FNC Coating Mix and cultured for about 5 days until reaching confluence under the condition of 5% CO2 at 37° C. The medium used was Dulbecco's Modified Eagle Medium (Gibco, 12320-032), 10% FBS, 1% Penicillin-Streptomycin (nacalai tesque, 26252-94).
As acclimation treatment, Z-VAD (OMe)-FMK (Wako Pure Chemical Industries, Ltd. 269-02071) was then added at a concentration of 10 μM and the cells were incubated for 16 hours under the condition of 5% CO2 at 37° C. For the Control group and anisomysin group, a solvent of a reagent Dimethyl Sulfoxide (DMSO) (Dimethyl Sulfoxide, Sterile-filtered; nacalai tesque, 13408-64) was added. The medium used was Gibco DMEM, 1% P/S. The cellular supernatant was then removed, and anisomysin (Wako Pure Chemical Industries Ltd., 017-16861) was added to the anisomysin group and the anisomysin+Z-VAD-FMK group at a concentration of 10 μM. 10 μM of Z-VAD was added with anisomysin to the anisomysin+Z-VAD-FMK group. DMSO was added to the groups to which Z-VAD-FMK was not added. The cells were then cultured for 9 hours. The cellular form was observed under a phase difference microscope. A picture was taken after 9 hours.
After 9 hours, cell proteins were collected. The amount of protein expression was compared by Western blot. Anti-caspase 3 antibodies (cell signaling, 9662S), anti-p38 MAPK antibodies (cell signaling, #9212), and anti-pp38 MAPK antibodies (cell signaling, #4631S) were used as the antibodies. Further, anti-GAPDH antibodies (MBL, 3H12) were used as the internal standard.

[2] = water; hydrochloride salt; cited from earlier work

In the case of `COc1ccc(C[C@H]2NC[C@H](O)[C@@H]2OC(C)=O)cc1` [anisomysin, (2R,3R,4S)-2-[(4-methoxyphenyl)methyl]-3,4-pyrrolidinediol-3-acetate], the “Phosphorylation of p38” value ([1]; 10 μM) is reported as “observed” and the “activation due to cleavage of caspase 3” value ([1]; 10 μM) is reported as “observed”.
For `COC(=O)C[C@H](NC(=O)[C@H](C)NC(=O)[C@@H](NC(=O)OCc1ccccc1)C(C)C)C(=O)CF` [Z-VAD-FMK] (Cbz-Val-Ala-Asp(OMe)-CH2F), the “Caspase 3 activation induced by anisomycin” value ([1]; 10 μM Z-VAD-FMK with 10 μM anisomycin) was “suppressed”.
In the case of `C[S+]([O-])c1ccc(-c2nc(-c3ccncc3)c(-c3ccc(F)cc3)[nH]2)cc1` (stereo not shown) [SB203580 hydrochloride, 4-(4-fluorophenyl)-2-(4-methylsulfinylphenyl)-5-(4-pyridyl)-1H-imidazole], the water solubility [2] is listed as “water-soluble”.
